Legend:
Type in all cases: biochemical
MMP-2h = MMP-2h (Homo sapiens (Human), UniProt P08253); experiment: Inhibition constant (Ki) on MMP-2h; conditions: read-out: Ki MMP-2h; human MMP-2
Text: (§1) The inhibition constant Ki of these compounds has been determined according to the protocol described by Devel et al, 2006, J. Biol. Chem. (7).
(§2) In this table I and also in table II below, “h” corresponds to human. All of the compounds have therefore been evaluated on human MMPs.

MMP-3h = MMP-3h (Homo sapiens (Human), UniProt P08254); experiment: Inhibition constant (Ki) on MMP-3h; conditions: read-out: Ki MMP-3h; human MMP-3
Text: as §1, §2

MMP-8h = MMP-8h (Homo sapiens (Human), UniProt P22894); experiment: Inhibition constant (Ki) on MMP-8h; conditions: read-out: Ki MMP-8h; human MMP-8
MMP-9h = MMP-9h (Homo sapiens (Human), UniProt P14780); experiment: Inhibition constant (Ki) on MMP-9h; conditions: read-out: Ki MMP-9h; human MMP-9
Text: as §1, §2

MMP-10h = MMP-10h (Homo sapiens (Human), UniProt P09238); experiment: Inhibition constant (Ki) on MMP-10h; conditions: read-out: Ki MMP-10h; human MMP-10
MMP-12h = MMP-12h (Homo sapiens (Human), UniProt P39900); experiment: Inhibition constant (Ki) on MMP-12h; conditions: read-out: Ki MMP-12h; human MMP-12
MMP-13h = MMP-13h (Homo sapiens (Human), UniProt P45452); experiment: Inhibition constant (Ki) on MMP-13h; conditions: read-out: Ki MMP-13h; human MMP-13
Text: as §1, §2

MMP-14h = MMP-14h (Homo sapiens (Human), UniProt P50281); experiment: Inhibition constant (Ki) on MMP-14h; conditions: read-out: Ki MMP-14h; human MMP-14
Text: as §1, §2

MMP-8h, sequence (P22894 101-467): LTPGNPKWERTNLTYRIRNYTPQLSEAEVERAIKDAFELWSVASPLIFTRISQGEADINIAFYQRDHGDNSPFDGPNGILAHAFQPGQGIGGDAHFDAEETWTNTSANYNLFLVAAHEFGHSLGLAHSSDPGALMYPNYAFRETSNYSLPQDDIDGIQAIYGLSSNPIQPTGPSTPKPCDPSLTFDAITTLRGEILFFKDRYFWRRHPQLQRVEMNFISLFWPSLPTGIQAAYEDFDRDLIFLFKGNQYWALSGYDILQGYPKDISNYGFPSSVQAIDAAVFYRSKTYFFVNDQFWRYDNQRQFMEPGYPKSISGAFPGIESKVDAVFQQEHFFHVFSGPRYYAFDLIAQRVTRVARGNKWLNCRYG
MMP-12h, sequence (P39900 106-470): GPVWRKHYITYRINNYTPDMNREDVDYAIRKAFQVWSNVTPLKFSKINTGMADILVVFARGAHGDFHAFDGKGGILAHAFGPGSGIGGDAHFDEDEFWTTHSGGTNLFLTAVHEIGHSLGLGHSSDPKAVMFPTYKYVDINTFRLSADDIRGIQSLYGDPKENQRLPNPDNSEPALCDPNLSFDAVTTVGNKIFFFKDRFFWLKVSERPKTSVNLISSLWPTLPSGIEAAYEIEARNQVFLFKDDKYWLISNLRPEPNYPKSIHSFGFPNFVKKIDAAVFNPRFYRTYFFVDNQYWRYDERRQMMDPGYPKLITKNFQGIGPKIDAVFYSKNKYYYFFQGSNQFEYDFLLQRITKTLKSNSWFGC
MMP-2h, sequence (P08253 110-660): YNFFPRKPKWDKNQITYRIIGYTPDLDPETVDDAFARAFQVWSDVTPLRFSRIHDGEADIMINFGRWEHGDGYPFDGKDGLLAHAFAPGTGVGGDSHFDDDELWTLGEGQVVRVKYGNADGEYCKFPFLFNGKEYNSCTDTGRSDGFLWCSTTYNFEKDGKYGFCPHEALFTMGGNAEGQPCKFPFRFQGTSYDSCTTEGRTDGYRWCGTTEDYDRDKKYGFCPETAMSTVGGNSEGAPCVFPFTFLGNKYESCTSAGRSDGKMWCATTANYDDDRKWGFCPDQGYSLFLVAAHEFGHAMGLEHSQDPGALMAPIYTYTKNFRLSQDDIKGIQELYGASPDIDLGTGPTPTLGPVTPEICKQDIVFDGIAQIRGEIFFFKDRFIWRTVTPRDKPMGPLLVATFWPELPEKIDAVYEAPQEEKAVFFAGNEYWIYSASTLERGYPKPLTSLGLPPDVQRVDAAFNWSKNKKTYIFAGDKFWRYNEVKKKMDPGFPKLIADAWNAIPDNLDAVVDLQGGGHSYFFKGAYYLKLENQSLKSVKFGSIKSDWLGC
MMP-10h, sequence (P09238 99-476): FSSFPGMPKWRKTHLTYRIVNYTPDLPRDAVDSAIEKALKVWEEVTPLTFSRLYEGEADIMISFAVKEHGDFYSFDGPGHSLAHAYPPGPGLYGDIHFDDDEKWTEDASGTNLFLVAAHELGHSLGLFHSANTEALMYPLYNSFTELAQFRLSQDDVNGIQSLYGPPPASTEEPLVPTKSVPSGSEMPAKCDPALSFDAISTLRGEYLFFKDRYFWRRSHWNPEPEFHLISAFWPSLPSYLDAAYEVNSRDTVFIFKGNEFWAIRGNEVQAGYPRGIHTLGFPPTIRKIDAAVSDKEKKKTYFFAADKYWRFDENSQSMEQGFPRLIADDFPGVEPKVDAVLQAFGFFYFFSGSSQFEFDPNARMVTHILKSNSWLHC
MMP-3h, sequence (P08254 100-477): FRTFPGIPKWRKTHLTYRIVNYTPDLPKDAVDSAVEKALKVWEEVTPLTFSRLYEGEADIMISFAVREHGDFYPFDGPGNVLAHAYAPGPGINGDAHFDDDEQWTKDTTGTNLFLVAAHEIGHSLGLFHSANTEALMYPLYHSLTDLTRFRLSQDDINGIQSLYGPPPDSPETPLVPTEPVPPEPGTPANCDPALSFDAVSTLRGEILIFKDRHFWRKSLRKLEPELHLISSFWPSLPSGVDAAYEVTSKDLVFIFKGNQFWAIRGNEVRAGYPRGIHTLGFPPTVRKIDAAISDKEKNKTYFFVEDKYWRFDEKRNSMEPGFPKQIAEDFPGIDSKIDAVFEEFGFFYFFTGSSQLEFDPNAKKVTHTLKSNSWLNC
MMP-9h, sequence (P14780 94-707): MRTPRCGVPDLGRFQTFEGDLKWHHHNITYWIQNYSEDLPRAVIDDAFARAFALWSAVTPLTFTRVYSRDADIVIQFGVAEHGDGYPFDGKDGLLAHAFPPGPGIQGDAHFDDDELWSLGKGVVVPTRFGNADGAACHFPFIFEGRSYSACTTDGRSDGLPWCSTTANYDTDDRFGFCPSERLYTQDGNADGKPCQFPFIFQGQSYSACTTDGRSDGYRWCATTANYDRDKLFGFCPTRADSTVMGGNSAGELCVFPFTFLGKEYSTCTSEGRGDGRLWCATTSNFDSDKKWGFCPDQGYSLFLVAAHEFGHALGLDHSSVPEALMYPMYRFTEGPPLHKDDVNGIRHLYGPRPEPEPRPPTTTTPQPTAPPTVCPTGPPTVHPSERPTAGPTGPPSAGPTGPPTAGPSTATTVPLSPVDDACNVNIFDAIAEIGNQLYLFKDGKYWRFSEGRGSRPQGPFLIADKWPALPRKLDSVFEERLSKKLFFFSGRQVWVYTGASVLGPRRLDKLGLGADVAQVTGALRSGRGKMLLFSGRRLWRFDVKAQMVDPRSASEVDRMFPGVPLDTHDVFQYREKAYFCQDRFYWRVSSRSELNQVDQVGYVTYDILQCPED

Structure (SMILES) | Ki (MMP-2h) | Ki (MMP-3h) | Ki (MMP-8h) | Ki (MMP-9h) | Ki (MMP-10h) | Ki (MMP-12h) | Ki (MMP-13h) | Ki (MMP-14h)
NC(=O)[C@H](CC(=O)O)NC(=O)[C@H](CCC(=O)O)NC(=O)CCc1ccc(-c2ccccc2)cc1 [Compound 45, (S)-5-((S)-1-amino-3-carboxy-1-oxopropan-2-ylamino)-4-(3-(biphenyl-4-yl)propanamido)-5-oxopentanoic acid] | 896 nM | > 5000 nM | 233 nM | > 1000 nM | > 1000 nM | 37 nM | > 1000 nM | > 5000 nM
NC(=O)[C@H](CCC(=O)O)NC(=O)[C@H](CCC(=O)O)NC(=O)CCc1ccc(-c2cccc(CO)c2)cc1 [Compound 60, (S)-5-amino-4-((S)-4-carboxy-2-(3-(3′-(hydroxymethyl)biphenyl-4-yl)propanamido)butanamido)-5-oxopentanoic acid] | > 5000 nM | > 10000 nM | 809 nM | > 5000 nM | > 5000 nM | 52 nM | > 5000 nM | > 10000 nM
NC(=O)[C@H](Cc1ccc(O)cc1)NC(=O)[C@H](CCC(=O)O)NC(=O)CCc1ccc(-c2ccccc2)cc1 [Compound 46, (S)-5-((S)-1-amino-3-(4-hydroxyphenyl)-1-oxopropan-2-ylamino)-4-(3-(biphenyl-4-yl)propanamido)-5-oxopentanoic acid] | 632 nM | > 10000 nM | 270 nM | > 1000 nM | > 1000 nM | 52 nM | > 1000 nM | > 5000 nM
NC(=O)[C@H](Cc1ccc(O)cc1)NC(=O)[C@H](CCC(=O)O)NC(=O)CCc1ccc(-c2ccc(-c3ccccc3)cc2)cc1 [Compound 65, (S)-5-((S)-1-amino-3-(4-hydroxyphenyl)-1-oxopropan-2-ylamino)-4-(3-(4′-phenylbiphenyl-4-yl)propanamido)-5-oxopentanoic acid] | 73 nM | 620 nM | 793 nM | > 1000 nM | 119 nM | 6.6 nM | 33 nM | > 1000 nM
NC(=O)[C@H](CCC(=O)O)NC(=O)[C@H](CCC(=O)O)NC(=O)CCc1ccc(I)cc1 [Compound 31, (S)-5-amino-4-((S)-4-carboxy-2-(3-(4-iodophenyl)propanamido)butanamido)-5-oxopentanoic acid] | > 1000 nM | > 5000 nM | 839 nM | > 1000 nM | > 1000 nM | 155 nM | > 1000 nM | > 1000 nM
NC(=O)[C@H](CCC(=O)O)NC(=O)[C@H](CCC(=O)O)NC(=O)CCc1ccc(-c2cc(Cl)cc(Cl)c2)cc1 [Compound 58, (S)-5-amino-4-((S)-4-carboxy-2-(3-(3′,5′-dichlorobiphenyl-4-yl)propanamido)butanamido)-5-oxopentanoic acid] | > 1000 nM | > 1000 nM | > 5000 nM | 391 nM | > 1000 nM | 56 nM | > 1000 nM | > 1000 nM
NC(=O)[C@H](Cc1c[nH]cn1)NC(=O)[C@H](CCC(=O)O)NC(=O)CCc1ccc(-c2ccccc2)cc1 [Compound 48, (S)-5-((S)-1-amino-3-(1H-imidazol-4-yl)-1-oxopropan-2-ylamino)-4-(3-(biphenyl-4-yl)propanamido)-5-oxopentanoic acid] | 847 nM | > 10000 nM | 339 nM | > 5000 nM | > 1000 nM | 75 nM | > 1000 nM | > 10000 nM
NC(=O)[C@H](CCC(=O)O)NC(=O)[C@H](Cc1ccc(O)cc1)NC(=O)CCc1ccc(-c2ccc(-c3ccccc3)cc2)cc1 [Compound 75, (S)-5-amino-4-((S)-3-(4-hydroxyphenyl)-2-(3-(4′-phenylbiphenyl-4-yl)propanamido)propanamido)-5-oxopentanoic acid] | > 1000 nM | 252 nM | > 5000 nM | > 10000 nM | > 1000 nM | 122 nM | 232 nM | > 10000 nM
NC(=O)[C@H](CCC(=O)O)NC(=O)[C@H](CO)NC(=O)CCc1ccc(-c2ccc(-c3ccccc3)cc2)cc1 [Compound 78, (S)-5-amino-4-((S)-3-hydroxy-2-(3-(4′-phenylbiphenyl-4-yl)propanamido)propanamido)-5-oxopentanoic acid] | 729 nM | 116 nM | > 1000 nM | > 5000 nM | > 5000 nM | 206 nM | 367 nM | > 1000 nM
Cc1nc(-c2ccc(CCC(=O)N[C@@H](CCC(=O)O)C(=O)N[C@@H](CCC(=O)O)C(N)=O)cc2)no1 [Compound 34, (S)-5-amino-4-((S)-4-carboxy-2-(3-(4-(5-methyl-1,2,4-oxadiazol-3-yl)phenyl)propanamido)butanamido)-5-oxopentanoic acid] | > 5000 nM | > 1000 nM | > 1000 nM | > 5000 nM | > 1000 nM | 887 nM | > 1000 nM | > 1000 nM
NC(=O)[C@H](Cc1c[nH]cn1)NC(=O)[C@H](CCC(=O)O)NC(=O)CCc1ccc(-c2ccc(-c3ccccc3)cc2)cc1 [Compound 67, (S)-5-((S)-1-amino-3-(1H-imidazol-4-yl)-1-oxopropan-2-ylamino)-4-(3-(4′-phenylbiphenyl-4-yl)propanamido)-5-oxopentanoic acid] | 68 nM | 337 nM | 526 nM | > 1000 nM | 168 nM | 10.2 nM | 36 nM | > 1000 nM
NCCCC[C@H](NC(=O)[C@H](CCC(=O)O)NC(=O)CCc1ccc(-c2ccc(-c3ccccc3)cc2)cc1)C(N)=O [Compound 63, (S)-5-((S)-1,6-diamino-1-oxohexan-2-ylamino)-4-(3-(4′-phenylbiphenyl-4-yl)propanamido)-5-oxopentanoic acid] | 110 nM | > 1000 nM | 621 nM | > 1000 nM | 447 nM | 14.3 nM | 55 nM | > 1000 nM
O=C(O)CC[C@H](NC(=O)CCc1ccc(-c2ccccc2)cc1)C(=O)Nc1cccc(CC(=O)O)c1 [Compound 52, (S)-4-(3-(biphenyl-4-yl)propanamido)-5-(3-(carboxymethyl)phenylamino)-5-oxopentanoic acid] | 546 nM | > 5000 nM | 63 nM | > 1000 nM | 433 nM | 12.7 nM | > 1000 nM | > 1000 nM
O=C(O)CC[C@H](NC(=O)CCc1ccc(-c2ccc(-c3ccccc3)cc2)cc1)C(=O)N1CCC[C@@H](CC(=O)O)C1 [Compound 70, (S)-5-((S)-3-(carboxymethyl)piperidin-1-yl)-4-(3-(4′-phenylbiphenyl-4-yl)propanamido)-5-oxopentanoic acid] | 12 nM | 231 nM | 105 nM | > 5000 nM | 421 nM | 4.7 nM | 17 nM | > 1000 nM
NC(=O)[C@H](CCC(=O)O)NC(=O)[C@H](CC(=O)O)NC(=O)CCc1ccc(-c2cc(-c3ccccc3)cs2)cc1 [Compound 100, (S)-5-amino-4-((S)-3-carboxy-2-(3-(4-(4-phenylthiophen-2-yl)phenyl)propanamido)propanamido)-5-oxopentanoic acid] | 862 nM | > 1000 nM | 559 nM | > 1000 nM | > 1000 nM | 15.1 nM | 559 nM | > 1000 nM
NC(=O)[C@H](CCC(=O)O)NC(=O)[C@H](CC(=O)O)NC(=O)CCc1cc(-c2ccc(-c3ccccc3)cc2)no1 [Compound 17, (S)-5-amino-4-((S)-2-(3-(3-(biphenyl-4-yl)isoxazl-5-yl)propanamido)-3-carboxypropanamido)-5-oxopentanoic acid] | 65 nM | 699 nM | > 1000 nM | > 1000 nM | > 1000 nM | 53 nM | 36 nM | > 5000 nM
NC(=O)[C@H](CCC(=O)O)NC(=O)[C@H](CCC(=O)O)NC(=O)CCc1ccc(Oc2ccccc2)cc1 [Compound 28, (S)-5-amino-4-((S)-4-carboxy-2-(3-(4-phenoxyphenyl)propanamido)butanamido)-5-oxopentanoic acid] | > 1000 nM | > 5000 nM | > 1000 nM | > 10000 nM | > 1000 nM | 856 nM | 309 nM | > 1000 nM
NC(=O)[C@H](CCC(=O)O)NC(=O)[C@H](CCC(=O)O)NC(=O)CCc1ccc(C#Cc2ccccc2)cc1 [Compound 30, (S)-5-amino-4-((S)-4-carboxy-2-(3-(4-(phenylethynyl)phenyl)propanamido)butanamido)-5-oxopentanoic acid] | > 1000 nM | > 1000 nM | 818 nM | 235 nM | > 1000 nM | 154 nM | 598 nM | > 1000 nM
